Key:
[1] = test system: HIV-1; details: for pSI (pEC50 − pCC50): Method B, selectivity index, ratio of CC50 to EC50
[2] = test system: mock-infected MT-4 cells; test: Method B: cytotoxicity in mock-infected MT-4 cells engineered with GFP under a constitutional promotor; type: cell-based
Description: In these cells, engineered with GFP (and an HIV-specific promotor), ongoing HIV-infection was measured fluorometrically. Cytotoxicity is measured in the same cells, but engineered with GFP under a constitutional promotor. The infection (or inhibition thereof) of HIV infected cells and the fluorescence of mock-infected cells is assessed by the fluorescent GFP signal generated by the two above mentioned cell lines.
The 50% cytotoxic concentration (CC50 in μM) was defined as the concentration of compound that reduced fluorescence of the mock-infected cells by 50%.

Structure (SMILES) | pEC50 (−logEC50) [1] | pSI (pEC50 − pCC50) [1] | pCC50 (−logCC50) [2]
COc1ccc(Cn2cnc3c(Nc4c(C)cc(CCC#N)cc4C)nc(Nc4ccc(C#N)cc4)nc32)cc1 [Compound 13] | 8.2 | −3.1 | 5.2
COc1ccc(Cn2cnc3c(Nc4c(C)cc(/C=C/C#N)cc4Cl)nc(Nc4ccc(C#N)cc4)nc32)cc1 [Compound 14] | 8.3 | −2.8 | 5.5
COc1ccc(Cn2cnc3nc(Nc4ccc(C#N)cc4)nc(Oc4c(OC)cc(/C=C/C#N)cc4OC)c32)cc1 [Compound 19] | 9.2 | <−4.6 | <4.6
COc1ccc(Cn2cnc3nc(Nc4ccc(C#N)cc4)nc(Oc4c(C)cc(/C=C/C(N)=O)cc4C)c32)cc1 [Compound 20] | 8.4 | −3.2 | 5.2
COc1ccc(Cn2cnc3nc(Nc4ccc(C#N)cc4)nc(Oc4c(C)cc(/C=C/C(=O)N(C)C)cc4C)c32)cc1 [Compound 21] | 8.4 | −3.6 | 4.8
COc1cc(OC)c(Nc2nc(Nc3ccc(C#N)cc3)nc3[nH]cnc23)c(OC)c1 [Compound 26] | 9.3 | −4.3 | 5.0
Cc1cc(C#N)cc(C)c1Nc1nc(Nc2ccc(C#N)cc2)nc2[nH]cnc12 [Compound 29] | 8.7 | −3.8 | 4.9
CCOc1cc(C)c(Nc2nc(Nc3ccc(C#N)cc3)nc3[nH]cnc23)c(C)c1 [Compound 30] | 8.8 | −4.0 | 4.8
Cc1cc(OCC#N)cc(C)c1Nc1nc(Nc2ccc(C#N)cc2)nc2[nH]cnc12 [Compound 31] | 9.3 | <−4.7 | <4.6
Cc1cc(CCC#N)cc(C)c1Nc1nc(Nc2ccc(C#N)cc2)nc2[nH]cnc12 [Compound 32] | 8.3 | −3.5 | 4.8
Cc1cc(/C=C/C#N)cc(C)c1Oc1nc(Nc2ccc(C#N)cc2)nc2[nH]cnc12 [Compound 33] | 8.5 | −3.5 | 5.0
Cc1cc(/C=C/C#N)cc(C)c1Nc1nc(Nc2ccc(C#N)cc2)nc2[nH]cnc12 [Compound 34] | 8.5 | −3.7 | 4.8
COc1cc(/C=C/C#N)cc(OC)c1Oc1nc(Nc2ccc(C#N)cc2)nc2[nH]cnc12 [Compound 35] | 8.4 | −3.5 | 4.9
Cc1cc(/C=C/C(=O)N(C)C)cc(C)c1Nc1nc(Nc2ccc(C#N)cc2)nc2[nH]cnc12 [Compound 37] | 8.1 | −2.7 | 5.4
Cc1cc(/C=C/C#N)cc(C)c1Nc1nc(Nc2ccc(C#N)cc2)nc2ncn(C)c12 [Compound 44] |  | 3.3 | 4.7
Cc1cc(C)c(Nc2nc(Nc3ccc(C#N)cc3)nc3c2ncn3C)c(C)c1 [Compound 45] | 9.2 | >4.6 | <4.6
